Reference: patent publication US9758485B2, “Compounds for controlling arthropods” (priority 2013, dated 2017)

Experiments:
[1] = logP determination by HPLC on a reversed-phase column (C18), EEC Directive 79/831 Annex V.A8; type: physicochemical; settings: for logP^a): HPLC-MS method a), Table I-T3; for logP: HPLC, reversed-phase C18, acetonitrile/water with formic acid, 55° C.
Ctenocephalides felis [2] = assay: Ctenocephalides felis - oral test; type: in vivo; settings: application rate 100 ppm in citrated cattle blood; adult fleas; kill after 2 days
In short: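 Compound dissolved in DMSO (10 mg in 0.5 ml stock) and diluted with citrated cattle blood to test concentration. About 20 unfed adult fleas fed on the treated blood through a parafilm membrane. Kill (%) scored after 2 days; 100% = all fleas dead.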

Musca domestica = Musca domestica test; type: in vivo; settings: application rate 100 ppm; adult houseflies; kill after 2 days
Experimental: (§1) Solvent: dimethyl sulphoxide
To produce an appropriate active ingredient formulation, 10 mg of active ingredient are mixed with 0.5 ml of dimethyl sulphoxide, and the concentrate is diluted with water to the desired concentration.
Vessels containing a sponge treated with sugar solution and the active ingredient formulation of the desired concentration are populated with 10 adult houseflies (Musca domestica).
After 2 days, the kill in % is determined. 100% means that all of the flies have been killed; 0% means that none of the flies have been killed.

Rhipicephalus sanguineus = Rhipicephalus sanguineus - in vitro contact tests with adult brown dog ticks; type: in vivo
Experimental: Rhipicephalus sanguineus—In Vitro Contact Tests with Adult Brown Dog Ticks
(§2) For the coating of the test tubes, 9 mg of active ingredient are first dissolved in 1 ml of acetone p.a. and then diluted to the desired concentration with acetone p.a. 250 μl of the solution are distributed homogeneously on the inner walls and base of a 25 ml test tube by turning and rocking on an orbital shaker (rocking rotation at 30 rpm for 2 h). With 900 ppm active ingredient solution and internal surface 44.7 cm^2, given homogeneous distribution, an area-based dose of 5 μg/cm^2 is achieved.
After the solvent has evaporated off, the tubes are populated with 5-10 adult dog ticks (Rhipicephalus sanguineus), sealed with a perforated plastic lid and incubated in a horizontal position in the dark at room temperature and ambient humidity. After 48 h, efficacy is determined. To this end, the ticks are knocked to the floor of the tube and incubated on a hotplate at 45-50° C. for not more than 5 min. Ticks which remain motionless on the floor or move in such an uncoordinated manner that they are unable to deliberately avoid the heat by climbing upwards are considered to be dead or moribund.
An efficacy of 100% means that all the ticks were dead or moribund. 0% efficacy means that none of the ticks had been harmed.

Lucilia cuprina = Lucilia cuprina test; type: in vivo; settings: application rate 100 ppm; L1 larvae in minced horsemeat; kill after 2 days
In short: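 About 20 L1 larvae placed on minced horsemeat treated with compound, formulated in DMSO and diluted with water to test concentration. Kill in % scored after 2 days (100% = all larvae dead, 0% = none).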

Boophilus microplus = Boophilus microplus - injection test; type: in vivo; settings: application rate 20 μg/animal; injected into engorged adult female ticks; laying of fertile eggs, after 7 days
In short: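 Engorged adult female ticks, five per dose, were injected in the abdomen with 1 μl of active ingredient diluted in dimethyl sulphoxide. Animals were kept in dishes under climate control, and egg fertility was assessed after 7 days.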

Ctenocephalides felis [3] = assay: Ctenocephalides felis - in vitro contact tests with adult cat fleas; type: in vivo; settings: application rate 5 μg/cm^2 (=500 g/ha), after 48 h (dead or moribund)
Experimental: Ctenocephalides felis—In Vitro Contact Tests with Adult Cat Fleas
as §2, with “surface area” for “surface”
After the solvent has evaporated off, the tubes are populated with 5-10 adult cat fleas (Ctenocephalides felis), sealed with a perforated plastic lid and incubated in a horizontal position at room temperature and ambient humidity. After 48 h, efficacy is determined. To this end, the test tubes are stood upright and the fleas are knocked to the base of the tube. Fleas which remain motionless at the base or move in an uncoordinated manner are considered to be dead or moribund.
100% efficacy means that all the fleas were dead or moribund. 0% efficacy means that no fleas were harmed.

[4] = test system: Boophilus microplus Parkhurst strain, SP-resistant; assay: Boophilus microplus - dip test; type: in vivo; settings: application rate 100 ppm; dip of engorged adult female ticks; laying of fertile eggs, after 7 days
Experimental: Boophilus microplus—Dip Test
Test animals: cattle ticks (Boophilus microplus) Parkhurst strain, SP-resistant
as §1
10 mg of active ingredient are dissolved in 0.5 ml of dimethyl sulphoxide. For the purpose of producing a suitable formulation, the active ingredient solution is diluted with water to the concentration desired in each case.
This active ingredient formulation is pipetted into tubes. 8-10 adult engorged female cattle ticks (Boophilus microplus) are transferred into a further tube with holes. The tube is immersed into the active ingredient formulation, and all the ticks are completely wetted. After the liquid has run out, the ticks are transferred on filter discs into plastic dishes and stored in a climate-controlled room.
Efficacy is assessed after 7 days by laying of fertile eggs. Eggs which are not visibly fertile are stored in a climate-controlled cabinet until the larvae hatch after about 42 days. An efficacy of 100% means that none of the ticks has laid any fertile eggs; 0% means that all the eggs are fertile.

[5] = application rate 5 μg/cm^2, after 48 h (dead or moribund)
[6] = HPLC-MS, reversed-phase column (C18)
[7] = HPLC on reversed-phase column (C18)

SMILES: CCc1cc(C(F)(C(F)(F)F)C(F)(F)F)ccc1-n1cc(-c2ccc(Cl)c(C(=O)NC3(C#N)CC3)c2)cn1 [I-T3-38]
- logP^a) [1]: 4.5
- efficacy (Ctenocephalides felis [2]): 100%
- efficacy (Musca domestica): 100%
- efficacy (Rhipicephalus sanguineus; [5]): 80%
- efficacy (Lucilia cuprina): 100%
- efficacy (Boophilus microplus): 100%

SMILES: CCc1cc(C(F)(C(F)(F)F)C(F)(F)F)cc(C)c1-n1cc(-c2ccc(Cl)c(C(=O)NC3(C#N)CC3)c2)cn1 [I-T3-46]
- logP^a) [1]: 4.6
- efficacy (Ctenocephalides felis [2]): 100%
- efficacy (Musca domestica): 100%
- efficacy (Rhipicephalus sanguineus; [5]): 100%
- efficacy (Ctenocephalides felis [3]): 100%
- efficacy (Lucilia cuprina): 100%
- efficacy (Boophilus microplus): 100%

SMILES: CCc1cc(C(F)(C(F)(F)F)C(F)(F)F)cc(C)c1-n1cc(-c2ccc(Cl)c(C(=O)NC3CSC3)c2)cn1 [I-T3-47]
- logP^a) [1]: 5.0
- efficacy (Ctenocephalides felis [2]): 100%
- efficacy (Rhipicephalus sanguineus; [5]): 100%
- efficacy (Lucilia cuprina): 100%
- efficacy (Boophilus microplus): 100%

SMILES: O=C(NC1CC1)c1cc(-c2cnn(-c3ccc(C(F)(C(F)(F)F)C(F)(F)F)cc3C(F)(F)F)c2)ccc1Cl [I-T3-52]
- logP^a) [1]: 4.3
- efficacy (Ctenocephalides felis [2]): 100%
- efficacy (Musca domestica): 100%
- efficacy (Rhipicephalus sanguineus; [5]): 100%
- efficacy (Lucilia cuprina): 100%
- efficacy (Boophilus microplus): 100%

SMILES: CCc1cc(C(F)(F)C(F)(F)F)cc(C)c1-n1cc(-c2ccc(Cl)c(C(=O)NC3(C#N)CC3)c2)cn1 [I-T3-80]
- logP^a) [1]: 4.2
- efficacy (Ctenocephalides felis [2]): 100%
- efficacy (Musca domestica): 100%
- efficacy (Rhipicephalus sanguineus; [5]): 80%
- efficacy (Ctenocephalides felis [3]): 100%
- efficacy (Lucilia cuprina): 100%
- efficacy [4]: 80%
- efficacy (Boophilus microplus): 100%

SMILES: O=C(NC1CC1)c1cc(-c2cnn(-c3c(Cl)cc(OC(F)(F)F)cc3Cl)c2)ccc1Cl [I-T3-88]
- logP^a) [1]: 3.6
- efficacy (Ctenocephalides felis [2]): 100%
- efficacy (Musca domestica): 80%
- efficacy (Rhipicephalus sanguineus; [5]): 80%
- efficacy (Ctenocephalides felis [3]): 100%
- efficacy (Lucilia cuprina): 100%
- efficacy (Boophilus microplus): 100%

SMILES: O=C(NC1CC1)c1cc(-c2cnn(-c3ccc(OC(F)(F)F)cc3Cl)c2)ccc1Cl [I-T3-90]
- logP^a) [1]: 3.6
- efficacy (Ctenocephalides felis [2]): 100%
- efficacy (Musca domestica): 90%
- efficacy (Rhipicephalus sanguineus; [5]): 100%
- efficacy (Lucilia cuprina): 100%
- efficacy (Boophilus microplus): 100%

SMILES: Cc1cc(C(F)(C(F)(F)F)C(F)(F)F)cc(C)c1-n1cc(-c2cnc(C)c(C(=O)N(C)C3CC3)c2)cn1 [I-T3-120]
- log P [1, 6]: 3.6
- efficacy (Ctenocephalides felis [2]): 100%
- efficacy (Musca domestica): 100%
- efficacy (Ctenocephalides felis [3]): 100%
- efficacy (Lucilia cuprina): 100%
- efficacy [4]: 100%
- efficacy (Boophilus microplus): 100%

SMILES: Cc1ncc(-c2cnn(-c3c(Cl)cc(C(F)(C(F)(F)F)C(F)(F)F)cc3C(F)(F)F)c2)cc1C(=O)N(C)C1CC1 [I-T3-130]
- log P [1, 6]: 3.8
- efficacy (Ctenocephalides felis [2]): 100%
- efficacy (Musca domestica): 100%
- efficacy (Ctenocephalides felis [3]): 100%
- efficacy (Lucilia cuprina): 100%
- efficacy [4]: 100%
- efficacy (Boophilus microplus): 100%

SMILES: Cc1ncc(-c2cnn(-c3c(Cl)cc(C(F)(C(F)(F)F)C(F)(F)F)cc3Cl)c2)cc1C(=O)N(C)C1CC1 [I-T3-133]
- log P [1, 6]: 3.7
- efficacy (Ctenocephalides felis [2]): 100%
- efficacy (Musca domestica): 100%
- efficacy (Ctenocephalides felis [3]): 100%
- efficacy (Lucilia cuprina): 100%
- efficacy [4]: 100%
- efficacy (Boophilus microplus): 100%

SMILES: COc1ncc(-c2cnn(-c3c(C)cc(C(F)(C(F)(F)F)C(F)(F)F)cc3C)c2)cc1C(=O)NC1(C#N)CC1 [I-T3-141]
- log P [1, 6]: 4.4
- efficacy (Ctenocephalides felis [2]): 100%
- efficacy (Musca domestica): 100%
- efficacy (Rhipicephalus sanguineus; application rate 1 μg/cm^2, after 48 h (dead or moribund)): 100%
- efficacy (Lucilia cuprina): 100%
- efficacy (Boophilus microplus): 100%

SMILES: COc1ncc(-c2cnn(-c3c(C)cc(C(F)(C(F)(F)F)C(F)(F)F)cc3C)c2)cc1C(=O)NC1CC1 [I-T3-143]
- log P [1, 6]: 4.6
- efficacy (Ctenocephalides felis [2]): 100%
- efficacy (Musca domestica): 100%
- efficacy (Rhipicephalus sanguineus; [5]): 80%
- efficacy (Ctenocephalides felis [3]): 100%
- efficacy (Lucilia cuprina): 100%
- efficacy (Boophilus microplus): 100%

SMILES: O=C(NC1CC1)c1cc(-c2cnn(-c3c(Br)cc(C(F)(C(F)(F)F)C(F)(F)F)cc3C(F)(F)F)c2)cnc1Cl [I-T3-160]
- log P [1, 6]: 4.0
- efficacy (Ctenocephalides felis [2]): 100%
- efficacy (Musca domestica): 100%
- efficacy (Rhipicephalus sanguineus; [5]): 100%
- efficacy (Ctenocephalides felis [3]): 100%
- efficacy (Lucilia cuprina): 100%
- efficacy [4]: 100%
- efficacy (Boophilus microplus): 100%

SMILES: N#CC1(NC(=O)c2cc(-c3cnn(-c4c(Br)cc(C(F)(C(F)(F)F)C(F)(F)F)cc4C(F)(F)F)c3)cnc2Cl)CC1 [I-T3-165]
- log P [1, 6]: 3.9
- efficacy (Ctenocephalides felis [2]): 100%
- efficacy (Musca domestica): 100%
- efficacy (Rhipicephalus sanguineus; [5]): 100%
- efficacy (Ctenocephalides felis [3]): 100%
- efficacy (Lucilia cuprina): 100%
- efficacy [4]: 100%
- efficacy (Boophilus microplus): 100%

SMILES: Cc1cc(C(F)(C(F)(F)F)C(F)(F)F)cc(I)c1-n1cc(-c2ccc(Cl)c(C(=O)NC3CC3)c2)cn1 [I-T3-175]
- log P [1, 6]: 4.5
- efficacy (Ctenocephalides felis [2]): 100%
- efficacy (Musca domestica): 100%
- efficacy (Rhipicephalus sanguineus; [5]): 100%
- efficacy (Ctenocephalides felis [3]): 100%
- efficacy (Lucilia cuprina): 100%
- efficacy [4]: 100%
- efficacy (Boophilus microplus): 100%

SMILES: O=C(NC1CC1)c1cc(-c2cnn(-c3c(Cl)cc(C(F)(C(F)(F)F)C(F)(F)F)cc3OC(F)(F)F)c2)cnc1Cl [I-T3-189]
- log P [1, 7]: 4.3
- efficacy (Ctenocephalides felis [2]): 100%
- efficacy (Musca domestica): 100%
- efficacy (Rhipicephalus sanguineus; [5]): 100%
- efficacy (Ctenocephalides felis [3]): 100%
- efficacy (Lucilia cuprina): 100%

SMILES: O=C(NC1CC1)c1cc(-c2cnn(-c3c(Cl)cc(C(F)(C(F)(F)F)C(F)(F)F)cc3OC(F)F)c2)cnc1Cl [I-T3-196]
- log P [1, 7]: 3.9
- efficacy (Rhipicephalus sanguineus; [5]): 100%
- efficacy (Ctenocephalides felis [3]): 100%

SMILES: Cc1cc(C(F)(C(F)(F)F)C(F)(F)F)cc(C)c1-c1cnn(-c2ccc(Cl)c(C(=O)NC3(C#N)CC3)c2)c1 [I-T4-2]
- logP [1]: 4.6
- efficacy (Ctenocephalides felis [2]): 100%
- efficacy (Musca domestica): 100%
- efficacy (Rhipicephalus sanguineus; [5]): 100%
- efficacy (Ctenocephalides felis [3]): 100%
- efficacy (Lucilia cuprina): 100%
- efficacy (Boophilus microplus): 100%

SMILES: Cc1cc(C(F)(C(F)(F)F)C(F)(F)F)cc(C(F)(F)F)c1-c1cc(-c2cnc(Cl)c(C(=O)NC3(C#N)CC3)c2)on1 [I-T22-4]
- logP [1]: 4.4
- efficacy (Ctenocephalides felis [2]): 100%
- efficacy (Rhipicephalus sanguineus; [5]): 100%
- efficacy [4]: 100%
- efficacy (Boophilus microplus): 100%

SMILES: Cc1cc(C(F)(C(F)(F)F)C(F)(F)F)cc(C(F)(F)F)c1-c1cc(-c2cnc(Cl)c(C(=O)NC3CC3)c2)on1 [I-T22-6]
- logP [1]: 4.5
- efficacy (Ctenocephalides felis [2]): 95%
- efficacy (Musca domestica): 90%
- efficacy (Rhipicephalus sanguineus; [5]): 100%
- efficacy (Lucilia cuprina): 100%
- efficacy [4]: 100%
- efficacy (Boophilus microplus): 100%
